Each structure is given as a SMILES string.

For series [1], the system named is visceral pain caused by acetic acid in normal mice. In words: Acetic acid-induced visceral pain (writhing test) after mibefradil injection. The format is in vivo. As for the experimental part: The present inventors injected 0.6% acetic acid into the peritoneal cavity of mice to examine the acetic acid-induced visceral pain response. The visceral pain is elicited secondarily to a delayed inflammatory response and induced abdominal stretching and writhing behavior (Gyires and Torma, Arch Int. Pharmacodyn. Ther., 1984, 267:131-140). Mice were placed individually in a transparent home cage (24×18×12 cm) and allowed to acclimate for at least 60 min. Then, 0.6% acetic acid ([…]) was injected into the peritoneum, after which the mice was returned to the testing chamber. The number of abdominal stretches or writhing motions was counted for 20 min. All mice were used only once in this experiment. […]
Particularly, in order to find out how mibefradil, the T-type calcium channel inhibitor functions, mibefreail was dissolved in 0.9% of NaCl at the concentration of 5 mg/ml. The degree of writhing was measured in a visceral pain inducing experiment 20 minutes after the injection of the said mibefradil at the concentration of 1, 10 and 30 mg/kg respectively in peritoneum of the mice.
A general note: Writhing tests count abdominal constrictions after an irritant is injected.

For series [2] the following is noted: inside the body, after peripheral (peritoneal) injection; cited from earlier work.

With `COCC(=O)O[C@]1(CCN(C)CCCc2nc3ccccc3[nH]2)CCc2cc(F)ccc2[C@@H]1C(C)C` [mibefradil, Mibefradil], the “degree of writhing / visceral pain caused by acetic acid” value in series [1] (normal (wild-type) mice, mibefradil 1, 10 and 30 mg/kg in peritoneum, 20 minutes before test, 0.6% acetic acid i.p., FIG. 4) is reported as “induced analgesia”. For the same compound, in series [1] (wild-type mice, mibefradil injected in the brain), the “visceral pain caused by acetic acid” value was “enhanced”. The “passage through the brain barrier” value in series [2] was “cannot pass through the brain barrier”.
